Assay results as given in patent US20250154124A1, “PROCESSES FOR THE PREPARATION OF N-(1-METHYLCYCLOPROPYL)-2-(3-PYRIDINYL)-2H-INDAZOLE-4-CARBOXAMIDE AND INTERMEDIATES THEREOF” (FMC CORPORATION, priority 2022, published 2025).

How the values were obtained:
[1] = Stable polymorph form screen (slurry experiments); assay type: physicochemical; conditions: between 2° C. and 73° C.
Procedure: Slurry experiments were conducted to identify the stable form at various conditions. In these experiments, saturated solutions in various solvents containing excess undissolved solids (starting with Form A+minor Form B) were stirred for extended durations. Slurries at room temperature (RT) and 2-8° C. were typically conducted for approximately 2 weeks, while slurries at 72-73° C. were stirred for a shorter duration (1 day) to minimize the potential for decomposition. […] The results are shown in the table 12 where the time and temperatures are approximate.

[2] = Form A and Form B interconversion (competitive) slurries; assay type: physicochemical; conditions: between 2° C. and 72° C.
Procedure: Relative thermodynamic stabilities of anhydrous/non-solvated Forms A and B were studied at 2-8° C., room temperature (RT) and at 71-72° C. via interconversion (competitive) slurries. In these slurries, a given solvent system was pre-saturated with compound 092 (Form A+minor Form B) at the stated temperature, and a portion of the liquid phase was filtered into a mixture of solids containing relatively equal amounts of Form A and Form B. Interconversion slurries at 2-8° C. and RT were allowed to stir for 22 days, while slurries at 71-72° C. stirred for shorter duration (2-4 days). […] The results are reported in table 13 below where: liquid phase for each slurry was pre-saturated using as-received Form A+minor Form B; solvent ratios are v/v; water activity values were calculated using UNIFAC calculator at RT; and times and temperatures are approximate.

SMILES: CC1(NC(=O)c2cccc3nn(-c4cccnc4)cc23)CC1 [Form A, N-(1-methylcyclopropyl)-2-(3-pyridinyl)-2H-indazole 4-carboxamide]
- relative stability of polymorph forms (slurry screen) [1]: more stable than Form B
- relative thermodynamic stability of Forms A and B (competitive slurries) [2]: thermodynamically stable form
